Source: patent US20130101530A1, “ANTIMICROBIAL PRESERVATIVE COMPOSITIONS FOR PERSONAL CARE PRODUCTS” (GALAXY SURFACTANTS LTD., priority 2011, published 2013)
In brackets after ≈: the same amount, converted by molar mass. Read-outs that look alike come from different tables or passages of the source.

Experiments:
Type in all cases: cell-based
[1] = tested on: Aspergillus niger ATCC 16404; test: Minimum inhibitory concentration
[2] = tested on: Bacillus subtilis ATCC 9372; test: microbe, parasite or virus in culture; conditions: for MIC: ATCC9372
[3] = tested on: all types of microbes (Gram positive, Gram negative bacteria, yeast and mould; the chosen eight organisms); test: Minimum inhibitory concentration, whole panel
[4] = tested on: Escherichia coli ATCC 10142; test: Minimum inhibitory concentration
[5] = tested on: Candida albicans ATCC 10231; test: Minimum inhibitory concentration
[6] = tested on: Staphylococcus aureus ATCC 6538S; test: Minimum inhibitory concentration; conditions: for MIC: ATCC6538S
[7] = tested on: Pseudomonas aeruginosa Immuno type IV; test: Minimum inhibitory concentration
[8] = tested on: Propionibacterium acnes MTCC 1951; test: Minimum inhibitory concentration; conditions: for MIC: Cutibacterium acnes
[9] = tested on: Malassezia furfur MTCC 1374; test: Minimum inhibitory concentration
[10] = Bacillus subtilis ATCC 9372, read-out: MINIMUM INHIBITORY CONCENTRATION
[11] = in Preservative Blend No 1 (10:10:80), Bacillus subtilis, read-out: Concentration of individual component at MIC of Preservative Blend No 1

OCCOc1ccccc1 [Phenoxy ethanol, 2-Phenoxy ethanol]
MIC ([1]; Aspergillus niger, ATCC16404, read-out: Concentration of individual component at MIC of Preservative Blend No 1): 2400 µg/mL | MIC ([1]; Aspergillus niger, ATCC16404, read-out: Concentration of individual component at MIC of Preservative Blend No 2): 1600 µg/mL | MIC ([1]; Aspergillus niger, ATCC16404, read-out: MINIMUM INHIBITORY CONCENTRATION): 9000 µg/mL (≈ 65.1 mM) | Concentration enough to kill the organism in combination with components [A] and [B] ([1]; in Preservative Blend No 1; Aspergillus): around 0.25% | MIC [2, 10]: 4000 µg/mL (≈ 29 mM) | MIC [2, 11]: 1600 µg/mL | MIC ([2]; in Preservative Blend No 2 (10:10:80), Bacillus subtilis, read-out: Concentration of individual component at MIC of Preservative Blend No 2): 1600 µg/mL | Activity against yeast and mould ([3]; ingredient alone, Aspergillus and Candida): virtually no activity | Activity against bacteria ([3]; ingredient alone, particularly Gram positive): weak activity | MIC ([4]; Escherichia coli, ATCC10142, read-out: Concentration of individual component at MIC of Preservative Blend No 1): 1600 µg/mL | MIC ([4]; Escherichia coli, ATCC10142, read-out: Concentration of individual component at MIC of Preservative Blend No 2): 2400 µg/mL | MIC ([4]; Escherichia coli, ATCC10142, read-out: MINIMUM INHIBITORY CONCENTRATION): 6000 µg/mL (≈ 43.4 mM) | MIC ([5]; Candida albicans, ATCC10231, read-out: Concentration of individual component at MIC of Preservative Blend No 1): 2400 µg/mL | MIC ([5]; Candida albicans, ATCC10231, read-out: Concentration of individual component at MIC of Preservative Blend No 2): 1600 µg/mL | MIC ([5]; Candida albicans, ATCC10231, read-out: MINIMUM INHIBITORY CONCENTRATION): 6000 µg/mL (≈ 43.4 mM) | Concentration enough to kill the organism in combination with components [A] and [B] ([5]; in Preservative Blend No 1, Candida): around 0.25% | MIC ([6]; Staphylococcus aureus, read-out: Concentration of individual component at MIC of Preservative Blend No 1): 1600 µg/mL | MIC ([6]; Staphylococcus aureus, read-out: Concentration of individual component at MIC of Preservative Blend No 2): 2400 µg/mL | MIC ([6]; Staphylococcus aureus, read-out: MINIMUM INHIBITORY CONCENTRATION): 8500 µg/mL (≈ 61.5 mM) | MIC ([7]; Pseudomonas aeruginosa, read-out: Concentration of individual component at MIC of Preservative Blend No 1): 1600 µg/mL | MIC ([7]; Pseudomonas aeruginosa, read-out: Concentration of individual component at MIC of Preservative Blend No 2): 2400 µg/mL | MIC ([7]; Pseudomonas aeruginosa, read-out: MINIMUM INHIBITORY CONCENTRATION): 4000 µg/mL (≈ 29 mM) | MIC ([8]; MTCC1951, read-out: Concentration of individual component at MIC of Preservative Blend No 1): 2400 µg/mL | MIC ([8]; MTCC1951, read-out: Concentration of individual component at MIC of Preservative Blend No 2): 1600 µg/mL | MIC ([8]; MTCC1951, read-out: MINIMUM INHIBITORY CONCENTRATION): 4000 µg/mL (≈ 29 mM) | MIC ([9]; Malassezia furfur, MTCC1374, read-out: Concentration of individual component at MIC of Preservative Blend No 1): 3200 µg/mL | MIC ([9]; Malassezia furfur, MTCC1374, read-out: Concentration of individual component at MIC of Preservative Blend No 2): 3200 µg/mL | MIC ([9]; Malassezia furfur, MTCC1374, read-out: MINIMUM INHIBITORY CONCENTRATION): 4000 µg/mL (≈ 29 mM)

C=CCCCCCCCCC(=O)NCCO [Undecylenoyl MEA amide, N-undecylenoyl monoethanol amide]
MINIMUM INHIBITORY CONCENTRATION ([1]; Aspergillus niger): >10000 ppm | Concentration of individual component at MIC of Preservative Blend No 1 ([1]; in Preservative Blend No 1 (10:10:80); Aspergillus niger): 300 ppm | Concentration of individual component at MIC of Preservative Blend No 2 ([1]; in Preservative Blend No 2 (10:10:80); Aspergillus niger): 200 ppm | MINIMUM INHIBITORY CONCENTRATION ([2]; Bacillus subtilis ATCC 9372): >10000 ppm | Concentration of individual component at MIC of Preservative Blend No 1 ([2]; in Preservative Blend No 1 (10:10:80), Bacillus subtilis): 200 ppm | Concentration of individual component at MIC of Preservative Blend No 2 ([2]; in Preservative Blend No 2 (10:10:80), Bacillus subtilis): 200 ppm | Concentration needed for activity of the ingredient by itself against the broad range of microbes ([3]; ingredient alone, octanoyl glycine tested at neutral pH): > 10000 ppm | Antimicrobial activity of the ingredient alone ([3]; up to 1.0% concentration, bacteria, yeast and mould): does not exhibit any antimicrobial activity | MINIMUM INHIBITORY CONCENTRATION ([4]; Escherichia coli ATCC 10142): >10000 ppm | Concentration of individual component at MIC of Preservative Blend No 1 ([4]; in Preservative Blend No 1 (10:10:80), Escherichia coli): 200 ppm | Concentration of individual component at MIC of Preservative Blend No 2 ([4]; in Preservative Blend No 2 (10:10:80), Escherichia coli): 300 ppm | MINIMUM INHIBITORY CONCENTRATION ([5]; Candida albicans ATCC 10231): >10000 ppm | Concentration of individual component at MIC of Preservative Blend No 1 ([5]; in Preservative Blend No 1 (10:10:80), Candida albicans): 300 ppm | Concentration of individual component at MIC of Preservative Blend No 2 ([5]; in Preservative Blend No 2 (10:10:80), Candida albicans): 200 ppm | MINIMUM INHIBITORY CONCENTRATION ([6]; Staphylococcus aureus ATCC 6538S): >10000 ppm | Concentration of individual component at MIC of Preservative Blend No 1 ([6]; in Preservative Blend No 1 (10:10:80), Staphylococcus aureus): 200 ppm | Concentration of individual component at MIC of Preservative Blend No 2 ([6]; in Preservative Blend No 2 (10:10:80), Staphylococcus aureus): 300 ppm | MINIMUM INHIBITORY CONCENTRATION ([7]; Pseudomonas aeruginosa Immuno type IV): >10000 ppm | Concentration of individual component at MIC of Preservative Blend No 1 ([7]; in Preservative Blend No 1 (10:10:80), Pseudomonas aeruginosa): 200 ppm | Concentration of individual component at MIC of Preservative Blend No 2 ([7]; in Preservative Blend No 2 (10:10:80), Pseudomonas aeruginosa): 300 ppm | MINIMUM INHIBITORY CONCENTRATION ([8]; Propionibacterium acnes MTCC 1951): >10000 ppm | Concentration of individual component at MIC of Preservative Blend No 1 ([8]; in Preservative Blend No 1 (10:10:80), Propionibacterium acnes): 300 ppm | Concentration of individual component at MIC of Preservative Blend No 2 ([8]; in Preservative Blend No 2 (10:10:80), Propionibacterium acnes): 200 ppm | MINIMUM INHIBITORY CONCENTRATION ([9]; Malassezia furfur MTCC 1374): >10000 ppm | Concentration of individual component at MIC of Preservative Blend No 1 ([9]; in Preservative Blend No 1 (10:10:80), Malassezia furfur): 400 ppm | Concentration of individual component at MIC of Preservative Blend No 2 ([9]; in Preservative Blend No 2 (10:10:80), Malassezia furfur): 400 ppm

CCCCCCCC(=O)NCC(=O)O [Octanoyl Glycine, N-Octanoyl glycine]
MIC ([1]; ATCC16404; in Preservative Blend No 1 (10:10:80); Aspergillus niger; read-out: Concentration of individual component at MIC of Preservative Blend No 1): 300 µg/mL | MIC ([1]; Aspergillus niger, ATCC16404; read-out: MINIMUM INHIBITORY CONCENTRATION): 4000 µg/mL (≈ 19.9 mM) | MIC [2, 10]: 3000 µg/mL (≈ 14.9 mM) | MIC [2, 11]: 200 µg/mL | MIC ([4]; ATCC10142, Escherichia coli ATCC 10142, read-out: MINIMUM INHIBITORY CONCENTRATION): 3000 µg/mL (≈ 14.9 mM) | MIC ([4]; ATCC10142, in Preservative Blend No 1 (10:10:80), Escherichia coli, read-out: Concentration of individual component at MIC of Preservative Blend No 1): 200 µg/mL | MIC ([5]; ATCC10231, Candida albicans ATCC 10231, read-out: MINIMUM INHIBITORY CONCENTRATION): 4000 µg/mL (≈ 19.9 mM) | MIC ([5]; ATCC10231, in Preservative Blend No 1 (10:10:80), Candida albicans, read-out: Concentration of individual component at MIC of Preservative Blend No 1): 300 µg/mL | MIC ([6]; Staphylococcus aureus ATCC 6538S, read-out: MINIMUM INHIBITORY CONCENTRATION): 3000 µg/mL (≈ 14.9 mM) | MIC ([6]; in Preservative Blend No 1 (10:10:80), Staphylococcus aureus, read-out: Concentration of individual component at MIC of Preservative Blend No 1): 200 µg/mL | MIC ([7]; Pseudomonas aeruginosa Immuno type IV, read-out: MINIMUM INHIBITORY CONCENTRATION): 3000 µg/mL (≈ 14.9 mM) | MIC ([7]; in Preservative Blend No 1 (10:10:80), Pseudomonas aeruginosa, read-out: Concentration of individual component at MIC of Preservative Blend No 1): 200 µg/mL | MIC ([8]; MTCC1951, Propionibacterium acnes MTCC 1951, read-out: MINIMUM INHIBITORY CONCENTRATION): 3000 µg/mL (≈ 14.9 mM) | MIC ([8]; MTCC1951, in Preservative Blend No 1 (10:10:80), Propionibacterium acnes, read-out: Concentration of individual component at MIC of Preservative Blend No 1): 300 µg/mL | MIC ([9]; MTCC1374, Malassezia furfur MTCC 1374, read-out: MINIMUM INHIBITORY CONCENTRATION): 3000 µg/mL (≈ 14.9 mM) | MIC ([9]; MTCC1374, in Preservative Blend No 1 (10:10:80), Malassezia furfur, read-out: Concentration of individual component at MIC of Preservative Blend No 1): 400 µg/mL
